Source: patent US4771046A, “Carbapenem derivatives” (Sankyo Company, Limited, priority 1985, dated 1988)
≈ marks a conversion by molar mass, not a printed value.

How the values were obtained:
[1] = system: Enterobacter cloacae 963; test: Minimum inhibitory concentration, agar plate dilution method; type: cell-based
Excerpt: (§1) Table 2 sets out the activities of six of the compounds of the present invention against various bacteria, in terms of their minimal inhibitory concentrations (μg/ml). These compounds are identified by the same numbers as used in Table 1 above.
(§2) Minimum Inhibitory Concentrations (μg/ml)
(§3) In the compounds used in Table 2, compounds 1, 15 and 27 have the (5R,6S) configuration, and compounds 2, 16 and 28 have the (1R,5S,6S) configuration. In all six of the compounds, the configuration of the hydroxy group in the side-chain at position 6 is (1R).

[2] = system: Escherichia coli 609; test: as above; type: cell-based
Excerpt: as §1, §2, §3

[3] = system: Escherichia coli NIHJ; test: as above; type: cell-based
Excerpt: as §1, §2, §3

[4] = system: Klebsiella pneumoniae 806; test: as above; type: cell-based
Excerpt: as §1, §2, §3

[5] = system: Klebsiella pneumoniae 846; test: as above; type: cell-based
Excerpt: as §1, §2, §3

[6] = system: Proteus vulgaris 1420; test: as above; type: cell-based
Excerpt: as §1, §2, §3

[7] = system: Salmonella enteritidis; test: as above; type: cell-based; settings: Salmonella enterica
Excerpt: as §1, §2, §3

[8] = system: Serratia marcescens 1184; test: as above; type: cell-based
Excerpt: as §1, §2, §3

[9] = system: Staphylococcus aureus 209P; test: as above; type: cell-based
Excerpt: as §1, §2, §3

[10] = system: Staphylococcus aureus 56; test: as above; type: cell-based
Excerpt: as §1, §2, §3

[11] = system: mice; test: Toxicity in mice (survival); type: in vivo
[12] = system: dehydropeptidase I; settings: in vivo in mammals; cited from earlier work
[13] = cited from earlier work

`C[C@@H](O)[C@H]1C(=O)N2C(C(=O)O)=C(SCC(=N)N3CCNC(=O)C3)C[C@H]12` [Compound No. 1, (5R,6S)-2-[2-(3-Oxopiperazin-1-yl)-2-iminoethylthio]-6-[(1R)-1-hydroxyethyl]-1-carbapen-2-em-3-carboxylic acid] showed an MIC [1] of 0.8 µg/mL (≈ 2.17 µM), an MIC [2] of 0.4 µg/mL (≈ 1.09 µM) and an MIC [3] of 0.1 µg/mL (≈ 0.271 µM). For the same compound, the MIC [4] was 0.2 µg/mL (≈ 0.543 µM), the MIC [5] was 0.1 µg/mL (≈ 0.271 µM) and the MIC [6] was 1.5 µg/mL (≈ 4.07 µM). The MIC [7] was 0.1 µg/mL (≈ 0.271 µM), the MIC [8] was 0.2 µg/mL (≈ 0.543 µM) and the MIC [9] was ≤ 0.01 µg/mL. The MIC [10] was 0.05 µg/mL (≈ 0.136 µM).

`C[C@@H](O)[C@H]1C(=O)N2C(C(=O)O)=C(SCC(=N)N3CCNC(=O)C3)[C@H](C)[C@H]12` [Compound No. 2, (1R,5S,6S)-2-[2-(3-Oxopiperazin-1-yl)-2-iminoethylthio]-6-[(1R)-1-hydroxyethyl]-1-methyl-1-carbapen-2-em-3-carboxylic acid] showed an MIC [1] of 0.4 µg/mL (≈ 1.05 µM), an MIC [2] of 0.05 µg/mL (≈ 0.131 µM) and an MIC [3] of 0.02 µg/mL (≈ 0.0523 µM). The MIC [4] was 0.02 µg/mL (≈ 0.0523 µM), the MIC [5] was 0.05 µg/mL (≈ 0.131 µM) and the MIC [6] was 0.4 µg/mL (≈ 1.05 µM). For the same compound, the MIC [7] was 0.05 µg/mL (≈ 0.131 µM), the MIC [8] was 0.1 µg/mL (≈ 0.261 µM) and the MIC [9] was ≤ 0.01 µg/mL. It also gave an MIC [10] of 0.05 µg/mL (≈ 0.131 µM).

For `C[C@@H](O)[C@H]1C(=O)N2C(C(=O)O)=C(SCC(=N)N3CCN(C)C(=O)C3)C[C@H]12` [Compound No. 3, (5R,6S)-2-[2-(4-Methyl-3-oxopiperazin-1-yl)-2-iminoethylthio]-6-[(1R)-1-hydroxethyl]-1-carbapen-2-em-3-carboxylic acid], the “dosage at which mice survive” value ([11]; mice) was “above 2,000 mg/kg”.

Compound `C[C@@H](O)[C@H]1C(=O)N2C(C(=O)O)=C(SCC(=N)N3CC[C@@H](OC(N)=O)C3)C[C@H]12` [Compound No. 15, (5R,6S)-2-{2-[(3R)-3-Carbamoyloxypyrrolidin-1-yl]-2-iminoethylthio}-6-[(1R)-1-hydroxyethyl]-1-carbapen-2-em-3-carboxylic acid] has an MIC [1] of 1.5 µg/mL (≈ 3.76 µM), an MIC [2] of 0.1 µg/mL (≈ 0.251 µM) and an MIC [3] of 0.1 µg/mL (≈ 0.251 µM). For the same compound, the MIC [4] was 0.1 µg/mL (≈ 0.251 µM), the MIC [5] was 0.05 µg/mL (≈ 0.125 µM) and the MIC [6] was 1.5 µg/mL (≈ 3.76 µM). The MIC [8] was 0.1 µg/mL (≈ 0.251 µM), the MIC [9] was ≤ 0.01 µg/mL and the MIC [10] was 0.02 µg/mL (≈ 0.0502 µM). The “dosage at which mice survive” value ([11]; mice) was “above 2,000 mg/kg”.

Work on `C[C@@H](O)[C@H]1C(=O)N2C(C(=O)O)=C(SCC(=N)N3CC[C@@H](OC(N)=O)C3)[C@H](C)[C@H]12` [Compound No. 16, (1R,5S,6S)-2-{2-[(3R)-3-Carbamoyloxypyrrolidin-1-yl]-2-iminoethylthio}-6-[(1R)-1-hydroxyethyl]-1-methyl-1-carbapen-2-em-3-carboxylic acid] yielded an MIC [1] of 0.8 µg/mL (≈ 1.94 µM), an MIC [2] of 0.1 µg/mL (≈ 0.242 µM) and an MIC [3] of 0.05 µg/mL (≈ 0.121 µM). It also gave an MIC [4] of 0.05 µg/mL (≈ 0.121 µM), an MIC [5] of 0.1 µg/mL (≈ 0.242 µM) and an MIC [6] of 3.1 µg/mL (≈ 7.52 µM). The MIC [8] was 0.1 µg/mL (≈ 0.242 µM), the MIC [9] was ≤ 0.01 µg/mL and the MIC [10] was 0.05 µg/mL (≈ 0.121 µM).

`C[C@@H](O)[C@H]1C(=O)N2C(C(=O)O)=C(SCC(=N)N3CCC(=NO)CC3)C[C@H]12` [Compound No. 27, (5R,6S)-2-[2-(4-Hydroxyiminopiperidin-1-yl)-2-iminoethylthio]-6-[(1R)-1-hydroxyethyl]-1-carbapen-2-em-3-carboxylic acid] gave an MIC [1] of 0.8 µg/mL (≈ 2.09 µM), an MIC [2] of 0.1 µg/mL (≈ 0.261 µM) and an MIC [3] of 0.1 µg/mL (≈ 0.261 µM). It also gave an MIC [4] of 0.1 µg/mL (≈ 0.261 µM), an MIC [5] of 0.05 µg/mL (≈ 0.131 µM) and an MIC [6] of 0.8 µg/mL (≈ 2.09 µM). For the same compound, the MIC [8] was 0.1 µg/mL (≈ 0.261 µM), the MIC [9] was ≤ 0.01 µg/mL and the MIC [10] was 0.02 µg/mL (≈ 0.0523 µM). The “dosage at which mice survive” value ([11]; mouse, in vivo) was “above 2,000 mg/kg”.

With `C[C@@H](O)[C@H]1C(=O)N2C(C(=O)O)=C(SCC(=N)N3CCC(=NO)CC3)[C@H](C)[C@H]12` [Compound No. 28, (1R,5S,6S)-2-[2-(4-Hydroxyiminopiperidin-1-yl)-2-iminoethylthio]-6-[(1R)-1-hydroxyethyl]-1-methyl-1-carbapen-2-em-3-carboxylic acid] the MIC [1] was 0.4 µg/mL (≈ 1.01 µM), the MIC [2] was 0.1 µg/mL (≈ 0.252 µM) and the MIC [3] was 0.02 µg/mL (≈ 0.0504 µM). The MIC [4] was 0.05 µg/mL (≈ 0.126 µM), the MIC [5] was 0.05 µg/mL (≈ 0.126 µM) and the MIC [6] was 1.5 µg/mL (≈ 3.78 µM). For the same compound, the MIC [8] was 0.1 µg/mL (≈ 0.252 µM), the MIC [9] was ≤ 0.01 µg/mL and the MIC [10] was 0.05 µg/mL (≈ 0.126 µM).

For `C[C@@H](O)[C@H]1C(=O)N2C(C(=O)O)=C(SCCN)C[C@H]12` [thienamycin, 2-(2-aminoethylthio)-6-(1-hydroxyethyl)carbapen-2-em-3-carboxylic acid], the “inactivation by dehydropeptidase I” value [12] is given as “inactivated in vivo in mammals by dehydropeptidase I” and the “chemical stability in the human body” value [13] is given as “poor”.
